# ChEMBL document CHEMBL1201862, “PubChem BioAssay data set” (2004)
#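 Growth conditions: 96-well plates. Treatment: test compound, 48 hours, 5 concentrations. Analysis: linear interpolation between bracketing concentrations; unreached endpoints set to highest concentration. At the GI50, growth is halved.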 Activity calls are given as the source filed them. Cut-off read from the data, not from the text of the source: active = GI50 up to about 1.1 µM and inactive = higher.
# Tests used:
# Experiment in all cases: growth of human tumour cells (NCI), 48 h
# NCI-H226 = tested on: NCI-H226
# OVCAR-8 = tested on: OVCAR-8
# SK-MEL-5 = tested on: SK-MEL-5
# SF-268 = tested on: SF-268
# BT-549 = tested on: BT-549
# UACC-257 = tested on: UACC-257
# HT-29 = tested on: HT-29
# HCT-116 = tested on: HCT-116
# SW-620 = tested on: SW-620
# HOP-92 = tested on: HOP-92
# COLO 205 = tested on: COLO 205
# SF-539 = tested on: SF-539
# TK-10 = tested on: TK-10
# NCI-H522 = tested on: NCI-H522
# K562 = tested on: K562
# SK-OV-3 = tested on: SK-OV-3
# 786-0 = tested on: 786-0
# OVCAR-4 = tested on: OVCAR-4
# RXF 393 = tested on: RXF 393
# T47D = tested on: T47D
# MOLT-4 = tested on: MOLT-4
# MDA-MB-231 = tested on: MDA-MB-231
# HL-60 = tested on: HL-60
# RPMI-8226 = tested on: RPMI-8226
# SN12C = tested on: SN12C
# DU-145 = tested on: DU-145
# HOP-62 = tested on: HOP-62
# CCRF-CEM = tested on: CCRF-CEM
# U-251 = tested on: U-251
# HCC 2998 = tested on: HCC 2998
# NCI-H23 = tested on: NCI-H23
# SR = tested on: SR
# Malme-3M = tested on: Malme-3M
# UO-31 = tested on: UO-31
# SK-MEL-2 = tested on: SK-MEL-2
# SF-295 = tested on: SF-295
# Hs-578T = tested on: Hs-578T
# SK-MEL-28 = tested on: SK-MEL-28
# MDA-N = tested on: MDA-N
# A549 = tested on: A549
# UACC-62 = tested on: UACC-62
# IGROV-1 = tested on: IGROV-1
# EKVX = tested on: EKVX
# OVCAR-5 = tested on: OVCAR-5
# PC-3 = tested on: PC-3
# M14 = tested on: M14
# KM12 = tested on: KM12
# OVCAR-3 = tested on: OVCAR-3
# CAKI-1 = tested on: CAKI-1
# LOX IMVI = tested on: LOX IMVI
# HCT-15 = tested on: HCT-15
# MCF7 = tested on: MCF7
# NCI-H460 = tested on: NCI-H460
# ACHN = tested on: ACHN
# SNB-75 = tested on: SNB-75
# SNB-19 = tested on: SNB-19
# MDA-MB-435 = tested on: MDA-MB-435
# NCI/ADR-RES = tested on: NCI/ADR-RES
structure (smiles),measurement,setting,value
c1ccc(-c2c(-c3[nH]c4ccccc4c3-c3ccccc3)[nH]c3ccccc23)cc1,GI50,NCI-H226,11.6 µM (inactive)
same,GI50,OVCAR-8,4.29 µM (inactive)
same,GI50,SK-MEL-5,4.16 µM (inactive)
same,GI50,SF-268,6.47 µM (inactive)
same,GI50,BT-549,4.56 µM (inactive)
same,GI50,UACC-257,12.3 µM (inactive)
same,GI50,HT-29,3.45 µM (inactive)
same,GI50,HCT-116,4.06 µM (inactive)
same,GI50,SW-620,3.34 µM (inactive)
same,GI50,HOP-92,3.21 µM (inactive)
same,GI50,COLO 205,1.91 µM (inactive)
same,GI50,SF-539,7.96 µM (inactive)
same,GI50,TK-10,10.6 µM (inactive)
same,GI50,NCI-H522,3.18 µM (inactive)
same,GI50,K562,4.03 µM (inactive)
same,GI50,SK-OV-3,8.15 µM (inactive)
same,GI50,786-0,2.07 µM (inactive)
same,GI50,OVCAR-4,2.17 µM (inactive)
same,GI50,RXF 393,1.82 µM (inactive)
same,GI50,T47D,2.53 µM (inactive)
same,GI50,MOLT-4,3.35 µM (inactive)
same,GI50,MDA-MB-231,3.4 µM (inactive)
same,GI50,HL-60,3.06 µM (inactive)
same,GI50,RPMI-8226,2.94 µM (inactive)
same,GI50,SN12C,1.91 µM (inactive)
same,GI50,DU-145,3.38 µM (inactive)
same,GI50,HOP-62,2.55 µM (inactive)
same,GI50,CCRF-CEM,3.4 µM (inactive)
same,GI50,U-251,4.52 µM (inactive)
same,GI50,HCC 2998,1.82 µM (inactive)
same,GI50,NCI-H23,2.63 µM (inactive)
same,GI50,SR,2.74 µM (inactive)
same,GI50,Malme-3M,13.7 µM (inactive)
same,GI50,UO-31,3.68 µM (inactive)
same,GI50,SK-MEL-2,8.45 µM (inactive)
same,GI50,SF-295,4.18 µM (inactive)
same,GI50,Hs-578T,9.38 µM (inactive)
same,GI50,SK-MEL-28,11.4 µM (inactive)
same,GI50,MDA-N,2.74 µM (inactive)
same,GI50,A549,3.5 µM (inactive)
same,GI50,UACC-62,9.98 µM (inactive)
same,GI50,IGROV-1,4.75 µM (inactive)
same,GI50,EKVX,3.89 µM (inactive)
same,GI50,OVCAR-5,11.1 µM (inactive)
same,GI50,PC-3,3.6 µM (inactive)
same,GI50,M14,3.54 µM (inactive)
same,GI50,KM12,3.03 µM (inactive)
same,GI50,OVCAR-3,2.3 µM (inactive)
same,GI50,CAKI-1,3.33 µM (inactive)
same,GI50,LOX IMVI,1.92 µM (inactive)
same,GI50,HCT-15,4.32 µM
same,GI50,MCF7,3.33 µM (inactive)
same,GI50,NCI-H460,2.95 µM (inactive)
same,GI50,ACHN,3.33 µM (inactive)
same,GI50,SNB-75,4.15 µM (inactive)
same,GI50,SNB-19,6.5 µM (inactive)
same,GI50,MDA-MB-435,3.44 µM (inactive)
same,GI50,NCI/ADR-RES,3.72 µM (inactive)
